Results as given in patent US10004777B2, “Bioactive compositions from Theacea plants and processes for their production and use” (ISP Investments Inc., priority 2004, dated 2018).

Assay: Superoxide scavenging activity (xanthine oxidase / cytochrome c reduction)
Assay type: biochemical
Excerpt: Method 7: Method for Determination of Superoxide Scavenging Activity. The enzymatic system, which uses xanthine oxidase (a purified enzyme preparation produced by “Sigma”), was used to generate superoxide anions in high yield and in a controlled fashion. The conversion of xanthine to […] by this enzyme generates amounts of superoxide anions and reduction of ferricytochrome c to ferrocytochrome c was used as a sensitive measure of superoxide levels. The measurements of ferrocytochrome c level (550 nm), when tested bioactive compositions were added to the reaction system, allow for determination of their superoxide scavenging activity. The final concentrations per well were for cytochrome c 75 μM, xanthine 425 μm/L, and xanthine oxidase 10 mU/ml.

Compound: O=C(/C=C/c1ccc(O)c(O)c1)O[C@H](Cc1ccc(O)c(O)c1)C(=O)O [rosmarinic acid]
- ICR50 of positive control: 26.5 µg/mL
